From PMC10420250, “Assessment of Purity, Stability, and Pharmacokinetics of NGP-1, a Novel Prodrug of GS441254 with Potential Anti-SARS-CoV-2 Activity, Using Liquid Chromatography” (Molecules, 2023)

What was measured:
several viruses = conditions: in vitro; cited from earlier work
[1] = Stability of NGP-1 in artificial digestive juices (HPLC-DAD); assay type: in vitro ADME
Description: Esterification is the predominant reaction used for the generation of prodrugs, owing to the facile hydrolysis of esters by various and ubiquitous esterases present in the various matrices. However, the presence of esters, particularly cyclic lactones, may result in instability in acidic, basic, or esterase environments. In this study, HPLC-DAD was employed to assess the stability of NGP-1 in different artificial digestive juices. The test samples were collected at various time intervals subsequent to dissolving NGP-1 in artificial gastric juice (diluted HCl with pepsin, pH = 1.5) and artificial intestinal juice (PBS with trypsin, pH = 6.8).
Mobile phase A consisted of a phosphoric acid solution, while mobile phase B consisted of ACN. Gradient elution was employed to separate the components under the following conditions: 0–4 min, 30–50% B; 4–10 min, 50% B. The specific parameters for liquid chromatography are presented in Table 2. […] Then, the content of the objective analytes in each sample was calculated using the external standard method.

[2] = Pharmacokinetic study in rats via gavage administration, plasma GS441 by LC-MS/MS; assay type: in vivo, Sprague-Dawley rats; conditions: equimolar doses
Method: A pharmacokinetic study was carried out in vivo using Sprague-Dawley rats to assess the behavior of NGP-1 when administered orally through the gastrointestinal route. The rats were randomly categorized into two groups (n = 6) and subjected to a 12 h overnight fast prior to oral administration. […] After administration, 0.5 mL of orbital blood was collected at specific time intervals in an EP tube with heparin moisturizing.
All the blood samples were promptly centrifuged at 4 °C to separate the upper plasma. A volume of 50 µL of plasma was subsequently transferred to a tube pre-filled with 450 µL of protein precipitant (H2O:ACN:MeOH = 1:4:4 containing 20 ng/mL of QX). […] After thorough mixing, the samples underwent high-speed centrifugation. The supernatants were extracted and centrifugated again. The resulting supernatants were collected and transferred into a vial for subsequent analysis.
The AB SCIEX QTRAP®4500 instrument, which comprised an LC system (ExionLC^TM, SCIEX, Framingham, MA, USA) and a triple-quadrupole mass spectrometer with an ESI interface, was used for the experiment. […] The data were acquired and analyzed using Analyst 1.7.3 coupled with MultiQuant 3.0.3 (SCIEX).

SMILES	EC50 comparison GS441 vs RDV (several viruses)	Degradation rate in artificial gastric juice ([1]; AGJ, diluted HCl with pepsin, pH = 1.5)	Stability in artificial intestinal juice ([1]; AIJ, PBS with trypsin, pH 6.8)	AUC0–∞ of converted GS441 relative to directly administered GS441 [2]	Frel / oral bioavailability of NGP-1 relative to GS441 [2]
N#C[C@@]1(c2ccc3c(N)ncnn23)O[C@H](CO)[C@@H](O)[C@H]1O [GS441]	higher EC50 than RDV				
CC(C)C(=O)OC[C@H]1O[C@@](C#N)(c2ccc3c(N)ncnn23)[C@@H]2OC(=O)O[C@@H]21 [NGP-1]		accelerate significantly	relatively stable	approximately four	approximately four and four
CCC(CC)COC(=O)[C@H](C)N[P@](=O)(OC[C@H]1O[C@@](C#N)(c2ccc3c(N)ncnn23)[C@H](O)[C@@H]1O)Oc1ccccc1 [RDV, remdesivir]	more potent				
